Measured values taken from patent US20240158446A1, “CYCLIC COMPOUND HAVING SELECTIVE INHIBITORY ACTION ON KRAS OVER HRAS AND NRAS” (CHUGAI SEIYAKU KABUSHIKI KAISHA, priority 2021, published 2024).

Legend:
[1] = target: GDP-bound NRAS wild-type protein (Homo sapiens, UniProt P01111); test: Binding to NRAS by surface plasmon resonance (SPR), Single Cycle Kinetics; details: SPR, GDP-bound NRAS wild-type protein vs GDP-bound KRAS wild-type protein
[2] = target: GDP-bound HRAS wild-type protein (Homo sapiens, UniProt P01112); test: Binding to HRAS by surface plasmon resonance (SPR), Single Cycle Kinetics; details: SPR, GDP-bound HRAS wild-type protein vs GDP-bound KRAS wild-type protein
GDP-bound HRAS wild-type protein, sequence (P01112 whole entry): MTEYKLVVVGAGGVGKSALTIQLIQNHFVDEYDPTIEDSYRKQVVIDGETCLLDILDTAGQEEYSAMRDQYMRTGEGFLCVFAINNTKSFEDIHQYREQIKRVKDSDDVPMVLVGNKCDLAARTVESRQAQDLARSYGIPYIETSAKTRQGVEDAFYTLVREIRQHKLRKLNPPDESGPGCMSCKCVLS

GDP-bound NRAS wild-type protein, sequence (P01111 whole entry): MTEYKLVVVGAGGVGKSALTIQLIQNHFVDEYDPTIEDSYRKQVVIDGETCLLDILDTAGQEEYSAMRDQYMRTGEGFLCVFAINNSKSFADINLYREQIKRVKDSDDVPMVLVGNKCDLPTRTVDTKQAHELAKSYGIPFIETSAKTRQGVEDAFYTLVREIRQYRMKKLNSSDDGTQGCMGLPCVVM

Row | Compound | NRAS/KRAS (ratio of KD value with respect to NRAS to KD value with respect to KRAS) [1] | HRAS/KRAS (ratio of KD value with respect to HRAS to KD value with respect to KRAS) [2] | NRAS/KRAS (ratio of KD value for NRAS to KD value for KRAS) [1] | HRAS/KRAS (ratio of KD value for HRAS to KD value for KRAS) [2]
1 | CCO[C@@H]1C[C@H]2C(=O)NC3(CCC3)C(=O)N(C)[C@@H](C3CCCC3)C(=O)N(C)[C@H](C(=O)N3CCOCC3)CC(=O)N(C)[C@@H](CC3CC3)C(=O)N[C@@H]([C@@H](C)CC)C(=O)N(C)CC(=O)N(C)[C@H]3CCCCCN(C3=O)[C@@H](Cc3ccc(C(F)(F)F)cc3)C(=O)N(C)CC(=O)N[C@@H](CCc3cc(F)c(C(F)(F)F)c(F)c3)C(=O)N2C1 [PP0682] | B (a compound having 3 or more and less than 10 is denoted as B) | B (a compound having 3 or more and less than 10 is denoted as B) | – | –
2 | CCO[C@@H]1C[C@H]2C(=O)NC3(CCC3)C(=O)N(C)[C@@H](C3CCCC3)C(=O)N(C)[C@H](C(=O)N3CCOCC3)CC(=O)N(C)[C@@H](CC3CCC3)C(=O)N[C@@H]([C@@H](C)CC)C(=O)N(C)CC(=O)N(C)[C@H]3CCCCCN(C3=O)[C@@H](Cc3ccc(C(F)(F)F)cc3)C(=O)N(C)CC(=O)N[C@@H](CCc3cc(F)c(C(F)(F)F)c(F)c3)C(=O)N2C1 [PP0683] | B (a compound having 3 or more and less than 10 is denoted as B) | B (a compound having 3 or more and less than 10 is denoted as B) | – | –
3 | CCO[C@@H]1C[C@H]2C(=O)NC3(CCC3)C(=O)N(C)[C@@H](C3CCCC3)C(=O)N(C)[C@H](C(=O)N3CCOCC3)CC(=O)N(C)[C@@H](CC(C)(C)C)C(=O)N[C@@H]([C@@H](C)CC)C(=O)N(C)CC(=O)N(C)[C@H]3CCCCCN(C3=O)[C@@H](Cc3ccc(C(F)(F)F)cc3)C(=O)N(C)CC(=O)N[C@@H](CCc3cc(F)c(C(F)(F)F)c(F)c3)C(=O)N2C1 [PP0684] | B (a compound having 3 or more and less than 10 is denoted as B) | B (a compound having 3 or more and less than 10 is denoted as B) | – | –
4 | CCO[C@@H]1C[C@H]2C(=O)NC3(CCC3)C(=O)N(C)[C@@H](C3CCCC3)C(=O)N(C)[C@H](C(=O)N3CCOCC3)CC(=O)N(C)[C@@H](CC3CCCC3)C(=O)N[C@@H]([C@@H](C)CC)C(=O)N(C)CC(=O)N(C)[C@H]3CCCCCN(C3=O)[C@@H](Cc3ccc(C(F)(F)F)cc3)C(=O)N(C)CC(=O)N[C@@H](CCc3cc(F)c(C(F)(F)F)c(F)c3)C(=O)N2C1 [PP0685] | B (a compound having 3 or more and less than 10 is denoted as B) | B (a compound having 3 or more and less than 10 is denoted as B) | – | –
5 | CCO[C@@H]1C[C@H]2C(=O)NC3(CCC3)C(=O)N(C)[C@@H](C3CCCC3)C(=O)N(C)[C@H](C(=O)N3CCOCC3)CC(=O)N(C)[C@@H](CC3CCCCC3)C(=O)N[C@@H]([C@@H](C)CC)C(=O)N(C)CC(=O)N(C)[C@H]3CCCCCN(C3=O)[C@@H](Cc3ccc(C(F)(F)F)cc3)C(=O)N(C)CC(=O)N[C@@H](CCc3cc(F)c(C(F)(F)F)c(F)c3)C(=O)N2C1 [PP0686] | B (a compound having 3 or more and less than 10 is denoted as B) | B (a compound having 3 or more and less than 10 is denoted as B) | – | –
6 | CCO[C@@H]1C[C@H]2C(=O)NC3(CCC3)C(=O)N(C)[C@@H](C3CCCC3)C(=O)N(C)[C@H](C(=O)N(C)C)CC(=O)N(C)[C@@H](CC3CCCC3)C(=O)N[C@@H]([C@@H](C)CC)C(=O)N(C)CC(=O)N(C)[C@H]3CCCCN(C3=O)[C@@H](Cc3ccc(C(F)(F)F)cc3)C(=O)N(C)CC(=O)N[C@@H](CCc3cc(F)c(C(F)(F)F)c(F)c3)C(=O)N2C1 [PP0700] | C (A compound having a KD ratio of 0.1 or more and less than 3 is denoted as C) | B (a compound having 3 or more and less than 10 is denoted as B) | – | –
7 | CCO[C@@H]1C[C@H]2C(=O)NC3(CCC3)C(=O)N(C)[C@@H](C3CCCC3)C(=O)N(C)[C@H](C(=O)N(C)C)CC(=O)N(C)[C@@H](C)C(=O)N[C@@H]([C@H](C)CC)C(=O)N(C)CC(=O)N(C)[C@H]3CCCCCN(C3=O)[C@@H](Cc3ccc(C(F)(F)F)cc3)C(=O)N(C)CC(=O)N[C@@H](CCc3cc(F)c(C(F)(F)F)c(F)c3)C(=O)N2C1 [PP0729] | B (a compound having 3 or more and less than 10 is denoted as B) | B (a compound having 3 or more and less than 10 is denoted as B) | – | –
8 | CCO[C@@H]1C[C@H]2C(=O)NC3(CCC3)C(=O)N(C)[C@@H](C3CCCC3)C(=O)N(C)[C@H](C(=O)N3CCOCC3)CC(=O)N(C)[C@@H](CC(C)C)C(=O)N[C@@H]([C@H](C)CC)C(=O)N(C)CC(=O)N(C)[C@H]3CCCCN(C3=O)[C@@H](Cc3ccc(C(F)(F)F)cc3)C(=O)N(C)CC(=O)N[C@@H](CCc3cc(F)c(C(F)(F)F)c(F)c3)C(=O)N2C1 [PP0806] | B (a compound having 3 or more and less than 10 is denoted as B) | B (a compound having 3 or more and less than 10 is denoted as B) | – | –
9 | CCO[C@@H]1C[C@H]2C(=O)NC3(CCC3)C(=O)N(C)[C@@H](C3CCCC3)C(=O)N(C)[C@H](C(=O)N3CCOCC3)CC(=O)N(C)[C@@H](CC(C)C)C(=O)N[C@@H]([C@H](C)CC)C(=O)N(C)CC(=O)N(C)[C@H]3CCCCCN(C3=O)[C@@H](Cc3ccc(C(F)(F)F)cc3)C(=O)N(C)CC(=O)N[C@@H](CCc3cc(F)c(C(F)(F)F)c(F)c3)C(=O)N2C1 [PP0815] | – | – | B (a compound having 3 or more and less than 10 is denoted as B) | B (a compound having 3 or more and less than 10 is denoted as B)
10 | CCO[C@@H]1C[C@H]2C(=O)NC3(CCC3)C(=O)N(C)[C@@H](C3CCCC3)C(=O)N(C)[C@H](C(=O)N3CCOCC3)CC(=O)N(C)[C@@H](CC(C)C)C(=O)N[C@@H](C3CC(F)(F)C3)C(=O)N(C)CC(=O)N(C)[C@H]3CCCCCN(C3=O)[C@@H](Cc3ccc(C(F)(F)F)cc3)C(=O)N(C)CC(=O)N[C@@H](CCc3cc(F)c(C(F)(F)F)c(F)c3)C(=O)N2C1 [PP0816] | – | – | A (a compound having 10 or more and less than 20 is denoted as A) | B (a compound having 3 or more and less than 10 is denoted as B)
11 | CC[C@H](C)[C@@H]1NC(=O)[C@H](CC(C)C)N(C)C(=O)C[C@@H](C(=O)N2CCOCC2)N(C)C(=O)[C@H](C2CCCC2)N(C)C(=O)C2(CCC2)NC(=O)[C@]2(C)CCCN2C(=O)[C@H](CCc2cc(F)c(C(F)(F)F)c(F)c2)NC(=O)CN(C)C(=O)[C@H](Cc2ccc(C(F)(F)F)cc2)N2CCCCC[C@@H](C2=O)N(C)C(=O)CN(C)C1=O [PP0817] | – | – | A (a compound having 10 or more and less than 20 is denoted as A) | B (a compound having 3 or more and less than 10 is denoted as B)
12 | CCO[C@@H]1C[C@H]2C(=O)NC3(CCC3)C(=O)N(C)[C@@H](C(CC)CC)C(=O)N(C)[C@H](C(=O)N3CCOCC3)CC(=O)N(C)[C@@H](CC(C)C)C(=O)N[C@@H]([C@@H](C)CC)C(=O)N(C)CC(=O)N(C)[C@H]3CCCCCN(C3=O)[C@@H](Cc3ccc(C(F)(F)F)cc3)C(=O)N(C)CC(=O)N[C@@H](CCc3cc(F)c(C(F)(F)F)c(F)c3)C(=O)N2C1 [PP0820] | – | – | A (a compound having 10 or more and less than 20 is denoted as A) | B (a compound having 3 or more and less than 10 is denoted as B)
13 | CCO[C@@H]1C[C@H]2C(=O)NC3(CCC3)C(=O)N(C)[C@@H]([C@H](C)CC)C(=O)N(C)[C@H](C(=O)N3CCOCC3)CC(=O)N(C)[C@@H](CC(C)C)C(=O)N[C@@H]([C@@H](C)CC)C(=O)N(C)CC(=O)N(C)[C@H]3CCCCCN(C3=O)[C@@H](Cc3ccc(C(F)(F)F)cc3)C(=O)N(C)CC(=O)N[C@@H](CCc3cc(F)c(C(F)(F)F)c(F)c3)C(=O)N2C1 [PP0821] | – | – | A (a compound having 10 or more and less than 20 is denoted as A) | B (a compound having 3 or more and less than 10 is denoted as B)
14 | CCO[C@@H]1C[C@H]2C(=O)NC3(CCC3)C(=O)N(C)[C@@H](C3CCCC3)C(=O)N(C)[C@H](C(=O)N3CCOCC3)CC(=O)N(C)[C@@H](CC(C)C)C(=O)N[C@@H]([C@@H](C)CC)C(=O)N(C)CC(=O)N(C)[C@H]3CC=C(C)CN(C3=O)[C@@H](Cc3ccc(C(F)(F)F)cc3)C(=O)N(C)CC(=O)N[C@@H](CCc3cc(F)c(C(F)(F)F)c(F)c3)C(=O)N2C1 [PP0826] | – | – | C (A compound having a KD ratio of 0.1 or more and less than 3 is denoted as C) | B (a compound having 3 or more and less than 10 is denoted as B)
15 | CCO[C@@H]1C[C@H]2C(=O)NC3(CCC3)C(=O)N(C)[C@@H](C3CCCC3)C(=O)N(C)[C@H](C(=O)N3CCOCC3)CC(=O)N(C)[C@@H](CC(C)C)C(=O)N[C@@H]([C@@H](C)CC)C(=O)N(C)CC(=O)N(C)[C@H]3C[C@H]4C[C@H]4CN(C3=O)[C@@H](Cc3ccc(C(F)(F)F)cc3)C(=O)N(C)CC(=O)N[C@@H](CCc3cc(F)c(C(F)(F)F)c(F)c3)C(=O)N2C1 [PP0829] | – | – | B (a compound having 3 or more and less than 10 is denoted as B) | C (A compound having a KD ratio of 0.1 or more and less than 3 is denoted as C)
16 | CC[C@H](C)[C@@H]1NC(=O)[C@H](COC)N(C)C(=O)C[C@@H](C(=O)N2CCOCC2)N(C)C(=O)[C@H](C2CCCC2)N(C)C(=O)C2(CCC2)NC(=O)[C@@H]2CC(F)(F)CN2C(=O)[C@H](CCc2cc(F)c(C(F)(F)F)c(F)c2)NC(=O)CN(C)C(=O)[C@H](Cc2ccc(C(F)(F)F)cc2)N2CCCCC[C@@H](C2=O)N(C)C(=O)CN(C)C1=O [PP0834] | – | – | A (a compound having 10 or more and less than 20 is denoted as A) | B (a compound having 3 or more and less than 10 is denoted as B)
